# Literature values as cited in patent publication US20030181501A1 (priority 2001, published 2003).
# Conditions: Dionne (1999)
structure (smiles),measurement,value
"Cc1onc(-c2ccccc2)c1-c1ccc(S(N)(=O)=O)cc1 [Valdecoxib, 4-(5-methyl-3-phenyl-4-isoxazolyl)benzenesulfonamide]",Solubility in water,extremely low solubility in water
